Assay results published in US20040087653A1, “Methods for the treatment of respiratory diseases and conditions with a selective iNOS inhibitor and a PDE inhibitor and compositions therefor” (priority 2002, published 2004).
Where a name gives a salt, the structure may show the parent alone. Read-outs that look alike come from different tables or passages of the source.

How the values were obtained:
[1] = tested on: nitrite production in human cartilage explants; assay: Human cartilage explant assay (IL-1 induced nitrite production); type: cell-based; details: inhibition of nitrite production, IL-1 stimulated explants
Experimental: Bone pieces are rinsed twice with Dulbecco's Phosphate Buffered Saline (GibcoBRL) and once with Dulbecco's Modified Eagles Medium (GibcoBRL) and placed into a petri dish with phenol red free Minimum Essential Medium (MEM) (GibcoBRL). Cartilage was cut into small explants of approximately 15-45 mg in weight and one or two explants per well are placed into either 96 or 48 well culture plates with 200-500 μL of culture media per well. The culture media was either a custom modification of Minimum Essential Medium(Eagle) with Earle's salts (GibcoBRL) prepared without L-Arginine, without L-Glutamine and without phenol red or a custom modification of serumless Neuman and Tytell (GibcoBRL) medium prepared without L-arginine, without insulin, without ascorbic acid, without L-glutamine and without phenol red. Both are supplemented before use with 100 μM L-Arginine (Sigma), 2 mM L-glutamine, 1× HL-1 supplement (BioWhittaker), […] ascorbic acid (Sigma) and 150 pg/ml recombinant human IL-1[…] (RD Systems) to induce nitric oxide synthase. Compounds are then added in 10 μL aliquots and the explants incubated at 37° C. with 5% CO2 for 18-24 hours. The day old supernatant is then discarded and replaced with fresh culture media containing recombinant human IL-1β and compound and incubated for another 20-24 hours. […] All samples are done in quadruplicate. Unstimulated controls are cultured in media in the absence of recombinant human IL-1 □. IC50 values (Table II) are determined from plotting the percent inhibition of nitrite production at six different concentrations of inhibitor.

i-NOS = i-NOS (Homo sapiens, UniProt P35228); assay: i-NOS inhibition, comparison with NIL amides
[2] = tested on: LPS-induced increase in plasma nitrite/nitrate levels; assay: In vivo assay: plasma nitrite/nitrate in endotoxin-treated rats; details: oral administration, plasma nitrite/nitrate 5 hours post-treatment
Experimental: Plasma nitrite/nitrate levels can be determined 5 hours post-treatment.

exhaled NO = details: high doses; cited from earlier work
[3] = tested on: human primary airway epithelial cells; assay: Nitrite in media of cytokine-stimulated human primary airway epithelial cells; type: cell-based; details: cells cultured 24 h with 50 ng/ml IL-1β, TNF-α and IFN-γ; read-out: IC50, inhibition of the increase in nitrite in the media
Experimental: Human primary airway epithelial cell cultures: Human primary airway epithelial cells were cultured as described previously (see Donnelly,L. E. and Barnes,P. J. Am J Respir Cell Mol.Biol 24:295-303 (2000)), and the amount of nitrite, the stable oxidation product of NO, in the cell culture media was measured using a modification of the spectrofluorometric method of Misko et al., Anal. Biochem. 4:11-16 (1993).
The protein was evenly distributed throughout the cytoplasm in basal cells but clearly located beneath the cilia in the columnar, ciliated cells. Treatment of airway epithelial cells with 50 ng/ml of IL-1β, TNF-α and IFN-γ (cytomix) for 24 h caused an induction of iNOS protein and an increase in the accumulation of nitrite in cell culture media from 2.20±0.2 μM in the absence of cytomix, to 3.5±0.4 μM in the presence of cytomix.
Media was harvested and measured for nitrite content (FIG. 1). Cellular proteins were resolved on 3-8% tris-acetate polyacrylamide gels and immunoblotted for iNOS protein (FIG. 2).

[4] = tested on: iNOS protein expression in human primary airway epithelial cells; assay: Western blotting of iNOS from cultured epithelial cells; type: cell-based; details: cytokine-stimulated cells, various concentrations
Experimental: Western blotting of iNOS from cultured epithelial cells: Following incubation with the cytokine mixture alone or with various concentrations of L-NIL, epithelial cells were lysed in 50 mM Tris/HCl, pH 7.4, containing 0.25 mM ethylene diaminotetraacetic acid, 0.5 mM phenylmethylsulfonyl fluoride, 5 μg/ml antipain, 5 μg/ml leupeptin and 5 μg/ml benzaminidine. The protein concentration was determined using the BioRad protein assay kit according to the manufacturer's instructions. Cell proteins were solubilized in sodium dodecyl sulfate polyacrylamide gel electrophoresis sample buffer ([…] Tris/HCl, pH 6.8, containing 10% v/v glycerol, 1% w/v SDS, 1% w/v β-mercaptoethanol, and 0.01% w/v bromophenol blue). The proteins (15 μg per lane) were resolved by electrophoresis in 3-8% (w/v) Tris-acetate SDS-polyacrylamide gels and transferred to Hybond-Enhanced Chemi-luminescence (ECL) nitro-cellulose membranes. Equal protein loading was determined by staining the blot with 0.1% (w/v) Ponceau S in 5% (v/v) acetic acid. The nitro-cellulose was then blocked overnight at 4° C. in 0.5M Tris-HCl,pH 7.4, containing 3% (w/v) normal goat serum, 1% (w/v) bovine serum albumin and 0.05% (v/v) Tween-20. […]
Media was harvested and measured for nitrite content (FIG. 1). […]

PDE IV [5] = tested on: T1, PDE IV; details: Hatzelmann et al. 2001; cited from earlier work
T1 construct: other: Hatzelmann et al. 2001

PDE I = details: Hatzelmann et al. 2001; cited from earlier work
PDE V = PDE V (Homo sapiens, UniProt O76074); details: printed only as numerator of 8/0.0008; cited from earlier work
PDE IV [6] = assay: PDE IV inhibition (Hatzelmann et al.)
Experimental: PDE inhibition is then determined by the presence or absence of substrate degradation products. […] The relative ability of an inhibitory compound to slow or prevent the degradation of tritiated cyclic nucleotides is one test that is indicative of how well the compound in question selects one or more of each isoform to inhibit.
In practice, the in vitro selectivity of a PDE IV inhibitor may vary depending upon the condition under which the test is performed and on the inhibitors being tested. However, for the purposes of this specification, the selectivity of a PDE IV inhibitor can be measured as a ratio of the in vitro IC50 value for inhibition of any other isoform of the phosphodiesterase enzyme (Z) other than PDE IV, divided by the IC50 value for inhibition of PDE IV (PDE Z IC50/PDE IV IC50), where Z identifies any PDE other than PDE IV.

[7] = Rattus norvegicus, read-out: ED50

Chain of i-NOS (P35228 whole entry): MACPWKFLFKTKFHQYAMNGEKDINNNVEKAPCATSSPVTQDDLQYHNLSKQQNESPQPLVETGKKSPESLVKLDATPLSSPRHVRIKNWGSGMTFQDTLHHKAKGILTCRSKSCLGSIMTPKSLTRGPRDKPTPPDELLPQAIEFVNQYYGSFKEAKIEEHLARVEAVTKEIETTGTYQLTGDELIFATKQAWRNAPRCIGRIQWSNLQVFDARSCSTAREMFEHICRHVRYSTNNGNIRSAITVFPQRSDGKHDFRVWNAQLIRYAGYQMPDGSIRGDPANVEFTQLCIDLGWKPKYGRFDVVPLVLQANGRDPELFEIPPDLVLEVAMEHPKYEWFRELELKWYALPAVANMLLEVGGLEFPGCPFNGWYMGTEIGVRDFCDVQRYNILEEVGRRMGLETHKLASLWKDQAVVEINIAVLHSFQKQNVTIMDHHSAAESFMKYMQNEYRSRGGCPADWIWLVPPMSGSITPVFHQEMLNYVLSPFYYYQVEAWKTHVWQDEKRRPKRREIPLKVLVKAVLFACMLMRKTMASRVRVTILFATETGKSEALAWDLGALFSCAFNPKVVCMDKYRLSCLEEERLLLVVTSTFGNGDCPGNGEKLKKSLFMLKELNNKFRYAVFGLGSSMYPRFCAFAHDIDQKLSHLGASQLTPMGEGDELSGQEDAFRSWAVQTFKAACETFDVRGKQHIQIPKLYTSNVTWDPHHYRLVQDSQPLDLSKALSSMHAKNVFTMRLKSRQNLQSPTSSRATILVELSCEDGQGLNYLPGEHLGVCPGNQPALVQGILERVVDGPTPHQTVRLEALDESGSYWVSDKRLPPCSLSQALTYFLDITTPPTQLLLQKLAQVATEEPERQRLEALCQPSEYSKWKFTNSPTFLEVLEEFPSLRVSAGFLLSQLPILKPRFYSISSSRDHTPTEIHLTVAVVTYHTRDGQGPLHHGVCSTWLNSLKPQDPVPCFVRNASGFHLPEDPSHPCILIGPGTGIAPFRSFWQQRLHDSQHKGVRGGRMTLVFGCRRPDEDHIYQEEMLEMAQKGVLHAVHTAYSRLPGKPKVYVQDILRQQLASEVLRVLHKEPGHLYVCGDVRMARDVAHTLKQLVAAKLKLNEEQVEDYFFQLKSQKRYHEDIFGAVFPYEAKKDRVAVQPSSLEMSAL

`CC(=N)NCC(F)=CCC[C@H](N)C(=O)O` (mixture of isomers) [Example B, (2S,5E/Z)-2-amino-6-fluoro-7-[(1-iminoethyl)amino]-5-heptenoic acid, dihydrochloride] gave an IC50 ([1]; Homo sapiens) of 200 nM.
For `CC(=N)NCCCC[C@H](N)C(=O)Nc1nnn[nH]1` [Example 1, 2S-amino-6-[(1-iminoethyl)amino]-N-(1H-tetrazol-5-yl)hexanamide, hydrate, dihydrochloride], the “selectivity compared with NIL amide or NIL dimethylamide” value (i-NOS) was “more selective”.
`CC(=N)NC/C(F)=C\CC[C@H](N)C(=O)O` [Example A, (2S,5E)-2-amino-6-fluoro-7-[(1-iminoethyl)amino]-5-heptenoic acid, dihydrochloride] gave an IC50 ([1]; Homo sapiens) of 100 nM, an ED50 [2, 7] of less than 0.1 mg/kg and an ED50 ([2]; dihydrochloride) of less than 0.1 mg/kg.
`CC(=N)NC/C(F)=C/CC[C@H](N)C(=O)O` [Example D, (2S,5Z)-2-amino-6-fluoro-7-[(1-iminoethyl)amino]-5-heptenoic acid, trihydrochloride, dihydrate] gave an IC50 ([1]; Homo sapiens) of 2500 nM and an ED50 [2, 7] greater than 10 mg/kg.
`CC(=NO)NC/C(F)=C\CC[C@H](N)C(=O)O` [Example G, (2S,5E)-2-amino-6-fluoro-7-[(1-hydroximinoethyl)amino]-5-heptenoic acid] showed an ED50 [2, 7] of less than 0.1 mg/kg and a melting point of 198 to 200 °C.
For `CC(=N)NC/C(F)=C\CC[C@H](N)C(=O)Nc1nnn[nH]1` [Example H, (2S,5E)-2-amino-6-fluoro-7-[(1-iminoethyl)amino]-N-(1H-tetrazol-5-yl) 5-heptenamide, dihydrochloride], the ED50 [2, 7] was less than 0.3 mg/kg.
Compound `CC(=N)NC/C(F)=C\CC[C@](C)(N)C(=O)O.Cl.Cl` [Example HH, (2S,5E)-2-amino-2-methyl-6-fluoro-7-[(1-iminoethyl)amino]-5-heptenoic acid, dihydrochloride] has an IC50 ([1]; Homo sapiens) of 400 nM and an ED50 [2, 7] of 0.4 mg/kg.
`COC[C@](N)(CSCCNC(C)=N)C(=O)O` [Example J, 2-[[[2-[(1-Iminoethyl)amino]ethyl]thio]methyl]-O-methyl-D-serine, dihydrochloride] showed an IC50 [1] of 8200 nM.
`CC(=N)NC/C=C\CC[C@](C)(N)C(=O)O.Cl.Cl` [Example LL, (2S,5Z)-2-amino-2-methyl-7-[(1-iminoethyl)amino]-5-heptenoic acid, dihydrochloride] showed an IC50 ([1]; Homo sapiens) of 800 nM and an ED50 [2, 7] of 0.3 mg/kg.
In the case of `N=C1CCCC[C@H](CCCC[C@@H](N)C(=O)O)N1` [Example V, (α,2S)-.α-aminohexahydro-7-imino-1H-azepine-2-hexanoic acid, trihydrate hydrochloride], the IC50 ([1]; Homo sapiens) is reported as less than 10000 nM and the ED50 [2, 7] is reported as less than 3 mg/kg.
Work on `N=C1CCCC[C@@H](CCCC[C@H](N)C(=O)O)N1` [Example W, (αS,2R)-α-aminohexahydro-7-imino-1H-azepine-2-hexanoic acid, trihydrate hydrochloride] yielded an IC50 ([1]; Homo sapiens) greater than 30000 nM.
For `N=C1CCCC[C@H](CCCC[C@H](N)C(=O)O)N1` [Example X, (αS,2S)-α-aminohexahydro-7-imino-1H-azepine-2-hexanoic acid, trihydrate hydrochloride], the IC50 [1] was less than 10000 nM.
In the case of `Cl.N=C1CCCC[C@H](CCCC[C@@H](N)C(=O)O)N1.O.O.O` [Example Y, (αR,2S)-α-aminohexahydro-7-imino-1H-azepine-2-hexanoic acid, trihydrate hydrochloride], the ED50 [2, 7] is reported as less than 3 mg/kg.
With `N=C1CCCC[C@H](CCCC[C@H](N)C(=O)O)N1` [Example Z, (αS,2S)-α-aminohexahydro-7-imino-1H-azepine-2-hexanoic acid, trihydrate hydrochloride] the IC50 ([1]; Homo sapiens) was less than 10000 nM.
For `COC(=O)[C@@H](N)CCCNC(=N)N[N+](=O)[O-]` [L-NAME], the “inhibition of exhaled NO” value (exhaled NO) is listed as “approximately 70%”.
With `CC(=N)NCCCC[C@H](N)C(=O)O` [L-NIL] the IC50 [3] was roughly 5700 nM and the “effect on iNOS expression as detected by immunoblotting” value [4] was “did not affect iNOS expression”.
In the case of `N=C(N)NN` [amino-guanidine], the “inhibition of exhaled NO” value (exhaled NO) is given as “approximately 70%”.
In the case of `O=C(Nc1c(Cl)cncc1Cl)c1ccc(OC(F)F)c(OCC2CC2)c1` [roflumilast], the IC50 (PDE IV [5]) is listed as 0.8 nM, the IC50 (PDE I) is listed as greater than 10000 nM and the IC50 (PDE V) is listed as 8000 nM. The “selectivity for PDE IV as compared with PDE I” value (PDE IV [6]; PDE I IC50/PDE IV IC50) was “at least 12,500” and the “selectivity for PDE IV as compared with PDE V” value (PDE IV [6]; PDE V IC50/PDE IV IC50) was “at least 10,000”.
